What was measured:
foxtail, giant = test: Test C pre-/postemergence herbicide test; assay type: in vivo, Setaria faberii
How it was run: (§1)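 Visual rating, 0 (no effect) to 100 (complete control), versus untreated controls after 13 to 15 days in the greenhouse. Pre: seeds in loam/sand, sprayed at planting. Post: 1- to 4-leaf plants (2 to 18 cm) in peat-based mix. Compounds in non-phytotoxic solvent plus surfactant.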

pigweed [1] = test: Test A pre-/postemergence herbicide test; assay type: in vivo, Amaranthus retroflexus
How it was run: (§2)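 Seeds sown in loam soil/sand blend received a preemergence directed soil spray of test chemical in non-phytotoxic solvent with surfactant; postemergence plants (2–10 cm, one- to two-leaf stage) were sprayed with the same formulation. After about 10 days in greenhouse, injury was rated visually versus untreated controls, 0 (no effect) to 100 (complete control).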

johnsongrass = test: Test C pre-/postemergence herbicide test; assay type: in vivo, Sorghum halepense
How it was run: as §1

corn = test: Test C pre-/postemergence herbicide test; assay type: in vivo, Zea mays
How it was run: as §1

lambsquarters = test: Test C pre-/postemergence herbicide test; assay type: in vivo, Chenopodium album
How it was run: as §1

velvetleaf = test: Test C pre-/postemergence herbicide test; assay type: in vivo, Abutilon theophrasti
How it was run: as §1

waterhemp = test: Test C pre-/postemergence herbicide test; assay type: in vivo, Amaranthus rudis
How it was run: as §1

nutsedge, yellow = test: Test C pre-/postemergence herbicide test; assay type: in vivo, Cyperus esculentus
How it was run: as §1

oilseed rape = test: Test C pre-/postemergence herbicide test; assay type: in vivo, Brassica napus
How it was run: as §1

pigweed [2] = test: Test C pre-/postemergence herbicide test; assay type: in vivo, Amaranthus retroflexus
How it was run: as §1

galium = test: Test C pre-/postemergence herbicide test; assay type: in vivo, Galium aparine; details: Preemergence
How it was run: as §1

wheat = test: Test A pre-/postemergence herbicide test; assay type: in vivo, Triticum aestivum; details: Postemergence
How it was run: as §2

[3] = Postemergence, 31 g ai/ha, scale 0 to 100 (0 no effect, 100 complete control)
[4] = Postemergence, 62 g ai/ha, scale 0 (no effect) to 100 (complete control)
[5] = Postemergence, 125 g ai/ha, scale 0 to 100 (0 no effect, 100 complete control)
[6] = Postemergence, 250 g ai/ha, scale 0 to 100 (0 no effect, 100 complete control)
[7] = Preemergence, 31 g ai/ha, scale 0 to 100, 0 is no effect and 100 is complete control
[8] = Preemergence, 62 g ai/ha, scale 0 to 100 (0 no effect, 100 complete control)
[9] = Preemergence, 125 g ai/ha, scale 0 to 100

O=C1NCC(c2cccc(C(F)(F)F)c2)C1C(=O)Nc1ccc(F)c(F)c1F (centres unmarked) [Compound 315]
Plant response rating, Foxtail, Giant (foxtail, giant; [3]): 0
Plant response rating, Foxtail, Giant (foxtail, giant; [4]): 40
Plant response rating, Foxtail, Giant (foxtail, giant; [5]): 85
Plant response rating, Foxtail, Giant (foxtail, giant; [6]): 85
Foxtail, Giant plant response rating (foxtail, giant; [7]): 90
Foxtail, Giant plant response rating (foxtail, giant; [8]): 90
Plant response rating, Foxtail, Giant (foxtail, giant; [9]): 95
Plant response rating (scale of 0 to 100), Foxtail, Giant (foxtail, giant; Preemergence, 250 g ai/ha): 98
Plant response rating, Pigweed (pigweed [1]; Postemergence, 125 g ai/ha, visual rating on 0 to 100 scale (0 no effect, 100 complete control), approx. 10 days): 30
Plant response rating, Pigweed (pigweed [1]; Postemergence, 500 g ai/ha, 0 to 100 scale (0 no effect, 100 complete control)): 50
Plant response rating, Pigweed (pigweed [1]; Preemergence, 125 g ai/ha, 0 to 100 scale where 0 is no effect and 100 is complete control): 30
Pigweed plant response rating (pigweed [1]; Preemergence, 500 g ai/ha, visual rating on 0 to 100 scale (0 no effect, 100 complete control)): 30
Plant response rating, Johnsongrass (johnsongrass; [3]): 0
Plant response rating, Johnsongrass (johnsongrass; [4]): 0
Plant response rating, Johnsongrass (johnsongrass; [5]): 0
Plant response rating, Johnsongrass (johnsongrass; [6]): 35
Johnsongrass plant response rating (johnsongrass; [7]): 75
Johnsongrass plant response rating (johnsongrass; [8]): 85
Plant response rating, Johnsongrass (johnsongrass; [9]): 85
Plant response rating (scale of 0 to 100), Johnsongrass (johnsongrass; Preemergence, 250 g ai/ha): 90
Plant response rating, Corn (corn; [3]): 0
Plant response rating, Corn (corn; [4]): 0
Plant response rating, Corn (corn; [5]): 10
Plant response rating, Corn (corn; [6]): 60
Corn plant response rating (corn; [7]): 50
Corn plant response rating (corn; [8]): 80
Plant response rating, Corn (corn; [9]): 80
Plant response rating (scale of 0 to 100), Corn (corn; Preemergence, 250 g ai/ha): 85
Plant response rating, Lambsquarters (lambsquarters; [3]): 60
Plant response rating, Lambsquarters (lambsquarters; [4]): 60
Plant response rating, Lambsquarters (lambsquarters; [5]): 65
Plant response rating, Lambsquarters (lambsquarters; [6]): 80
Lambsquarters plant response rating (lambsquarters; [7]): 40
Lambsquarters plant response rating (lambsquarters; [8]): 40
Plant response rating, Lambsquarters (lambsquarters; [9]): 70
Plant response rating (scale of 0 to 100), Lambsquarters (lambsquarters; Preemergence, 250 g ai/ha): 80
Plant response rating, Velvetleaf (velvetleaf; [3]): 10
Plant response rating, Velvetleaf (velvetleaf; [4]): 25
Plant response rating, Velvetleaf (velvetleaf; [5]): 30
Plant response rating, Velvetleaf (velvetleaf; [6]): 55
Velvetleaf plant response rating (velvetleaf; [8]): 30
Plant response rating, Velvetleaf (velvetleaf; [9]): 40
Plant response rating (scale of 0 to 100), Velvetleaf (velvetleaf; Preemergence, 250 g ai/ha): 50
Plant response rating, Waterhemp (waterhemp; [3]): 50
Plant response rating, Waterhemp (waterhemp; [4]): 60
Plant response rating, Waterhemp (waterhemp; [5]): 60
Plant response rating, Waterhemp (waterhemp; [6]): 65
Waterhemp plant response rating (waterhemp; [8]): 75
Plant response rating, Waterhemp (waterhemp; [9]): 85
Plant response rating (scale of 0 to 100), Waterhemp (waterhemp; Preemergence, 250 g ai/ha): 85
Plant response rating, Nutsedge, Yellow (nutsedge, yellow; [3]): 0
Plant response rating, Nutsedge, Yellow (nutsedge, yellow; [4]): 0
Plant response rating, Nutsedge, Yellow (nutsedge, yellow; [5]): 0
Plant response rating, Nutsedge, Yellow (nutsedge, yellow; [6]): 0
Nutsedge, Yellow plant response rating (nutsedge, yellow; [7]): 0
Nutsedge, Yellow plant response rating (nutsedge, yellow; [8]): 0
Plant response rating, Nutsedge, Yellow (nutsedge, yellow; [9]): 20
Plant response rating (scale of 0 to 100), Nutsedge, Yellow (nutsedge, yellow; Preemergence, 250 g ai/ha): 20
Plant response rating, Oilseed Rape (oilseed rape; [3]): 0
Plant response rating, Oilseed Rape (oilseed rape; [4]): 0
Plant response rating, Oilseed Rape (oilseed rape; [5]): 0
Plant response rating, Oilseed Rape (oilseed rape; [6]): 10
Oilseed Rape plant response rating (oilseed rape; [7]): 5
Oilseed Rape plant response rating (oilseed rape; [8]): 30
Plant response rating, Oilseed Rape (oilseed rape; [9]): 85
Plant response rating (scale of 0 to 100), Oilseed Rape (oilseed rape; Preemergence, 250 g ai/ha): 80
Plant response rating, Pigweed (pigweed [2]; [3]): 25
Plant response rating, Pigweed (pigweed [2]; [4]): 65
Plant response rating, Pigweed (pigweed [2]; [5]): 65
Plant response rating, Pigweed (pigweed [2]; [6]): 80
Pigweed plant response rating (pigweed [2]; [7]): 45
Pigweed plant response rating (pigweed [2]; [8]): 60
Plant response rating, Pigweed (pigweed [2]; [9]): 75
Plant response rating (scale of 0 to 100), Pigweed (pigweed [2]; Preemergence, 250 g ai/ha): 85
Galium plant response rating (galium; 31 g ai/ha, scale 0 to 100, 0 is no effect and 100 is complete control): 90
Galium plant response rating (galium; 62 g ai/ha, scale 0 to 100 (0 no effect, 100 complete control)): 80
Plant response rating, Galium (galium; 125 g ai/ha, scale 0 to 100): 80
Plant response rating (scale of 0 to 100), Galium (galium; 250 g ai/ha): 90
Plant response rating, Wheat (wheat; 125 g ai/ha, visual rating on 0 to 100 scale (0 no effect, 100 complete control), approx. 10 days): 60
Plant response rating, Wheat (wheat; 500 g ai/ha, 0 to 100 scale (0 no effect, 100 complete control)): 70
